Measurements from US20110130371A1, “C-ring-substituted pregn-4-ene-21,17-carbolactones, and pharmaceutical preparations comprising the same” (BAYER SCHERING PHARMA AKTIENGESSELSCHAFT, priority 2008, published 2011).

How the values were obtained:
[1] = target: T1, human androgen receptor (hAR) (Homo sapiens, UniProt P10275); assay: Antiandrogen transactivation assay (PC3 cells, hAR, MMTV-luciferase reporter); type: cell-based; settings: for IC50: PC3 cells stably transfected with hAR and MMTV-luciferase, 16 hours incubation, read-out: IC50, antiandrogenic effect in the transactivation assay; for Efficacy: per cent of the maximum effect of reference antiandrogen hydroxyflutamide
T1 construct: expressed in transfected cells; host or cells: PC3 cells, stably transfected with hAR and an MMTV-luciferase reporter
T1 sequence (P10275 1-920): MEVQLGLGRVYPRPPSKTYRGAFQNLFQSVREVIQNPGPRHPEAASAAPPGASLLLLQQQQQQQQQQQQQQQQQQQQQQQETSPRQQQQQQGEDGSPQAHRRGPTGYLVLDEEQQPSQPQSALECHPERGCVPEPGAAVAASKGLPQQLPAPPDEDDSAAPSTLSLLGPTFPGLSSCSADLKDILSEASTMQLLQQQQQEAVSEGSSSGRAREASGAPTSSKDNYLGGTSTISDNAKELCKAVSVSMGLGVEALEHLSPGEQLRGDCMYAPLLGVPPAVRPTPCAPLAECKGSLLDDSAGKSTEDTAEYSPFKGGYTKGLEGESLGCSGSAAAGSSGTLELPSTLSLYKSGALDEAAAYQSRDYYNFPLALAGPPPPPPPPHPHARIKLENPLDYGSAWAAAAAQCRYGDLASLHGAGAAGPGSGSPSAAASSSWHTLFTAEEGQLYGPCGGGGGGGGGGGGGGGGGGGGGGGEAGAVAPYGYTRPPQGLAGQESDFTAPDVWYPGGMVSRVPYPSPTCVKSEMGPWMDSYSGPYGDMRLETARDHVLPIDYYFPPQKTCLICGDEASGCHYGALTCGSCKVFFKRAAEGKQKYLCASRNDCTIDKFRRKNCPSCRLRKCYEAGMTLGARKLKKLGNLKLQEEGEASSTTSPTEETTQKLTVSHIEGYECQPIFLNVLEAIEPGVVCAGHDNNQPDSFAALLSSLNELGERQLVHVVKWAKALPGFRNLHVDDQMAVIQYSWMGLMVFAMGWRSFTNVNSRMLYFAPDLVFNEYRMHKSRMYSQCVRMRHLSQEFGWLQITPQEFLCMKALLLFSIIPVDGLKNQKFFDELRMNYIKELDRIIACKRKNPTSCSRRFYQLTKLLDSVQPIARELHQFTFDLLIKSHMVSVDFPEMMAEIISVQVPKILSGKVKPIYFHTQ
Procedure: The antiandrogenic effect was carried out as described in Schneider et al. (Schneider K., Graf E., Irran E., Nicholson G., Stainsby F. M., Goodfellow M., Borden S. A., Keller S., Süssmuth R. D. and Fiedler H. P. (2008) Bendigoles A˜C, New Steroids from Gordonia australis Acta 2299, J. Antibiotics (Tokyo) 61 (6), 356-364).
The culture medium used for culturing cells used for the assay was RPMI (PAA, #E15-49) with 10% FCS, […] L-glutamine, 100 U/100 ug/ml penicillin/streptomycin. Reporter cell lines (PC3 cells stably transfected with human androgen receptor (hAR) and a reporter construct which comprises luciferase under the control of an androgen-responsive promoter (MMTV)) were grown at a density of 4×10^4 cells per well in white, opaque tissue culture plates with 96 wells in each (Perkin Elmer, #P12-106-017) and maintained in culture medium with 3% DCC-FCS (serum treated with activated carbon to remove interfering components present in the serum). The compounds to be investigated were added eight hours later, and the cells were incubated with the compounds for 16 hours. The experiments were carried out in triplicate. At the end of the incubation, the effector-containing medium was removed and replaced by lysis buffer.
After luciferase assay substrate (Promega, #E1501) had been added, the plates with the 96 wells were then inserted into a microplate luminometer (Pherastar, BMG labtech), and the luminescence was measured. The IC50 values were evaluated using software for calculating dose-activity relationships. The efficacy indicates the per cent of the maximum effect by comparison with the maximum effect of a reference antiandrogen (hydroxyflutamide).

orchidectomized rats = assay: Antiandrogenic effect in orchidectomized rats (Hershberger); type: in vivo, rat; settings: for Antiandrogenic effect (% inhibition): 1 mg/kg/day TP s.c. plus 10 mg/kg/day test substance for seven days, prostate weight; for antiandrogenic effect (in words): Hershberger
Procedure: This entails testing the suitability of the compounds for inhibiting the androgen-dependent growth of prostate, seminal vesicle and levator ani muscle in young, male, castrated rats receiving androgen replacement.
For this purpose, young rats are initially castrated. Eight days after the orchidectomy, the animals receive 1 mg/kg/day testosterone propionate (TP) s.c. alone or in combination with the test substances (10 mg/kg/day) for seven days.
On day 15 after the orchidectomy, the animals are sacrificed, and prostate, seminal vesicle and levator ani muscle are dissected out, and the relative wet weight is determined. The inhibited androgen-induced growth serves as a measure of the antiandrogenic effect of the test substance.

ovariectomized rats [2] = assay: Progestational effect in ovariectomized rats (pregnancy maintenance test); type: in vivo, rat; settings: ovariectomized pregnant rats, 5 μg/kg/d oestrone, treatment from day 8 p.c. for 6 days
Procedure: This entails investigating the ability of the compounds to compensate for the lack of progesterone in ovariectomized animals which no longer have their own progesterone synthesis and to maintain pregnancy (“pregnancy maintenance”).
Female animals weighing 200-230 g were mated. The animals were ovariectomized on day 8 post coitum (p.c.) and treated with 5 μg/kg/d oestrone. The compounds to be tested were given in various concentrations (3, 10, 30 mg/kg/d). Treatment was started on day 8 p.c. and continued for 6 days.
One day after the last treatment, the animals were autopsied. The degree of pregnancy maintenance was calculated by dividing the number of live fetuses by the number of detectable implantation sites. The presence of a beating heart was decisive for assessing a fetus as alive. No identifiable implantation sites (ovariectomized controls) was defined as 0% pregnancy maintenance.
The ED50 (concentration at which the half-maximum effect occurs) was determined as a measure of the progestational potency.

adrenalectomized rats = assay: Antimineralocorticoid effect in adrenalectomized rats (diuresis experiment); type: in vivo, rat; settings: for ED50, antimineralocorticoid effect in the diuresis experiment: adrenalectomized male rats, s.c., aldosterone 1 μg/kg/h, AUC of urinary Na/K ratio
Procedure: The antimineralocorticoid effect of the compounds was determined as described by Losert at al. (Losert, W., Casals-Stenzel, J., and Buse, M. (1985). Progestogens with antimineralocorticoid activity. Arzneimittelforschung 35, 459-471).
Male animals weighing 180-200 g were adrenalectomized 5 days before the experiment and received replacement with glucocorticoids. A diuresis experiment was carried out on day 5 after the adrenalectomy. A continuous infusion of isotonic NaCl solution plus 5% glucose was administered i.v. to the animals. Simultaneous administration of 1 μg/kg/h d-aldosterone achieved a constant mineralocorticoid effect, identifiable from sodium retention and kaliuresis. The test compounds were administered s.c. in various dosages (3, 10 and 30 mg/kg), and the abolition of the aldosterone-induced sodium retention indicates an antimineralocorticoid effect.
The animals were kept in metabolism cages and urine fractions were collected each hour. The sodium and potassium ion concentration in the urine was determined by a flame-photometry method, and the Na/K ratio was calculated therefrom. The Na/K ratios were plotted against time and the area under the curve [AUC] was determined. The ED50 (concentration at which the half-maximum effect occurs) was determined as a measure of the antimineralocorticoid potency.

IDI1 mRNA = assay: Antiandrogenic effect in orchidectomized rats, gene expression in prostate tissue (TaqMan PCR); settings: for antiandrogenic effect (in words): IDI1 gene expression, orchidectomized rats; for Antiandrogenic effect (% inhibition): inhibition of TP-induced IDI1 mRNA induction, prostate, 24 hours; for fold induction at 10 mg/kg: Rattus norvegicus, 24 h, read-out: x-fold induction factor of IDI1 mRNA after TP administration
Procedure: As a modification of the Hershberger assay described above, in addition animals were sacrificed 24 hours after the first treatment (1 mg/kg TP, 10 mg/kg test substance), and prostate tissue was shock-frozen immediately after the autopsy and then employed for mRNA isolation. A quantitative PCR method (TagMan) was used to investigate the induction (x-fold induction factor) of androgen-stimulated genes, inter alis of steroid biosynthesis (e.g. IDI1, NM 004508.2) as a measure of the androgenic effect of TP and the inhibition thereof by the compounds of the invention.

ovariectomized rats [3] = assay: Modified pregnancy maintenance experiment with pharmacokinetic/pharmacodynamic model (AUC versus pregnancy maintenance); type: in vivo; settings: rat, calculated from physiologically based PK model
Source text: In order to describe the difference in their progestational potency more precisely, in a modified pregnancy maintenance experiment blood samples were additionally taken at various times to determine pharmacokinetic parameters. The rats were pretreated in this case as described in the preceding experiment. A physiologically based pharmacokinetic model was developed using the programmes PK-SIM, version 4.0.1 (Bayer Technology Services, Leverkusen, Germany), GastroPlus version 5.2 (Simulations Plus, Inc., Lancaster, Calif., USA) and WinNonlin® Professional (version 5.2, Pharsight Corp., Mountain View, Calif., USA).
The relation was found between the AUC (area under the curve of the time-concentration profile) reached during the experiment and the measured pharmacological effect, i.e. the pregnancy maintenance achieved. The model thus permitted estimation of AUC50 values.
Based on the relation between systemic exposure and effect, the AUC in blood necessary to achieve 80% pregnancy maintenance in the rat model was calculated (Table 2).

Compound: C[C@]12CCC(=O)C=C1[C@@H]1C[C@@H]1C1C2[C@@H](F)C[C@@]2(C)C1[C@@H]1C[C@@H]1[C@@]21CCC(=O)O1 (single isomer, unassigned) [Compound of Ex. 2, 6β,7β;15β,16β-Dimethylene-11β-fluoro-3-oxo-17-pregn-4-ene-21,17β-carbolactone]
- IC50 [1]: 0.16 µM
- Efficacy [1]: 31.9 per cent
- Antiandrogenic effect (% inhibition) (orchidectomized rats): 3.8%
- ED50, progestational effect in the pregnancy maintenance test (ovariectomized rats [2]): 3.4 mg/kg/day
- ED50, antimineralocorticoid effect in the diuresis experiment (adrenalectomized rats): 12.36 mg/kg/day

Compound: C[C@]12CCC(=O)C=C1[C@@H]1C[C@@H]1C1C2CC[C@@]2(C)C1[C@@H]1C[C@@H]1[C@@]21CCC(=O)O1 (stereo partly drawn) [Drospirenone, 6β,7β-15β,16β-dimethylene-3-oxo-17-pregn-4-ene-21,17β-carbolactone]
- Antiandrogenic effect (% inhibition) (orchidectomized rats): 22.5%
- antiandrogenic effect (in words) (orchidectomized rats): smaller but distinct antiandrogenic effect
- antiandrogenic effect (in words) (IDI1 mRNA): smaller but distinct antiandrogenic effect
- Antiandrogenic effect (% inhibition) (IDI1 mRNA; 10 mg/kg test substance): 27%
- ED50, progestational effect in the pregnancy maintenance test (ovariectomized rats [2]): 10 mg/kg/day
- ED50 (adrenalectomized rats; Rattus norvegicus, sc): 6.7 mg/kg
- AUC (blood, calculated) in rats necessary for 80% pregnancy maintenance (ovariectomized rats [3]): 1346 (μg*h/L)

Compound: CC(=O)O[C@]1(C(C)=O)CC[C@H]2[C@@H]3C=C(Cl)C4=CC(=O)[C@@H]5C[C@@H]5[C@]4(C)[C@H]3CC[C@@]21C [Cyproterone acetate, cyproterone acetate]
- Antiandrogenic effect (% inhibition) (orchidectomized rats): 73.1%
- antiandrogenic effect (in words) (orchidectomized rats): strong antiandrogenic effect
- antiandrogenic effect (in words) (IDI1 mRNA): strong antiandrogenic effect
- fold induction at 10 mg/kg (IDI1 mRNA): 1.53
- Antiandrogenic effect (% inhibition) (IDI1 mRNA; 10 mg/kg test substance): 91%

Compound: CCC(=O)O[C@H]1CC[C@H]2[C@@H]3CCC4=CC(=O)CC[C@]4(C)[C@H]3CC[C@]12C [TP, testosterone propionate]
- x-fold induction factor of IDI1 mRNA after TP administration (IDI1 mRNA; prostate tissue 24 hours after first treatment, 1 mg/kg TP, 10 mg/kg test substance): 7.07

Compound: C[C@]12CCC(=O)C=C1[C@@H]1C[C@@H]1C1C2=CC[C@@]2(C)C1[C@@H]1C[C@@H]1[C@@]21CCC(=O)O1 (stereo partly drawn) [Compound of Ex. 1, 6β,7β;15β,16β-Dimethylene-3-oxo-17-pregna-4,9(11)-diene-21,17β-carbolactone]
- IC50 [1]: 0.24 µM
- Efficacy [1]: 19.3 per cent
- Antiandrogenic effect (% inhibition) (orchidectomized rats): <0%
- antiandrogenic effect (in words) (IDI1 mRNA): no antiandrogenic effect
- fold induction at 10 mg/kg (IDI1 mRNA): 7.89
- Antiandrogenic effect (% inhibition) (IDI1 mRNA; 10 mg/kg test substance): <0%
- ED50, progestational effect in the pregnancy maintenance test (ovariectomized rats [2]): 2.9 mg/kg/day
- ED50, antimineralocorticoid effect in the diuresis experiment (adrenalectomized rats): 5.9 mg/kg/day
- AUC (blood, calculated) in rats necessary for 80% pregnancy maintenance (ovariectomized rats [3]): 210 (μg*h/L)
